According to BindingDB's records for doi:10.1021/jm500763m (Beijing Institute of Pharmacology & Toxicology, 2014):
Square brackets hold non-standard residues; d marks the D form. Peptide text beside a SMILES is read from it. * marks the point of attachment. X1 = C=CCOC(=O)[C@]12CC[C@@H](C(=C)C)[C@@H]1[C@H]1CC[C@@H]3[C@@]4(C)CC[C@H](OC(=O)CCc5cn(CC(=O)*)nn5)C(C)(C)[C@@H]4CC[C@@]3(C)[C@]1(C)CC2; X3 = C=C(C)[C@@H]1CC[C@]2(C(=O)O)CC[C@]3(C)[C@H](CC[C@@H]4[C@@]5(C)CC[C@H](OC(=O)CCc6cn(CC(=O)*)nn6)C(C)(C)[C@@H]5CC[C@]43C)[C@@H]12; X4 = C=C(C)[C@@H]1CC[C@]2(C(=O)OCc3cn(CC(=O)*)nn3)CC[C@]3(C)[C@H](CC[C@@H]4[C@@]5(C)CC[C@H](O)C(C)(C)[C@@H]5CC[C@]43C)[C@@H]12; X11 = CCCc1cn(CC(=O)*)nn1; βAla = NCCC(=O)O

Experiment: Inhibition of HIV1 gp41-induced cell-cell fusion between viral envelope expressing human HL2/3 cells to CD4/CCR5 receptor expressing TZM-bl cells after 6 to 8 hrs by luciferase assay

Row | EC50 [nM] | SMILES
1 | 2180 | CCCc1cn(CC(=O)NCCCC[C@H](NC(=O)CCNC(=O)[C@H](CC(C)C)NC(=O)[C@H](CC(C)C)NC(=O)[C@H](CCC(=O)O)NC(=O)[C@H](CCC(N)=O)NC(=O)[C@H](CCC(=O)O)NC(=O)[C@H](CC(N)=O)NC(=O)[C@H](CCCCN)NC(=O)[C@H](CCC(=O)O)NC(=O)[C@H](CCC(N)=O)NC(=O)[C@H](CCC(N)=O)NC(=O)[C@H](CC(N)=O)NC(=O)[C@H](CCC(N)=O)NC(=O)[C@H](CO)NC(=O)[C@H](CCC(=O)O)NC(=O)[C@H](CCC(=O)O)NC(=O)[C@@H](NC(=O)[C@H](CC(C)C)NC(=O)[C@H](CO)NC(=O)[C@H](Cc2cnc[nH]2)NC(=O)[C@@H](NC(=O)[C@H](CC(C)C)NC(=O)[C@H](CO)NC(=O)[C@@H](NC(=O)[C@H](Cc2ccc(O)cc2)NC(=O)[C@H](CC(N)=O)NC(=O)[C@H](CC(N)=O)NC(C)=O)[C@@H](C)O)[C@@H](C)CC)[C@@H](C)CC)C(N)=O)nn1 (Ac-NNYTSLIHSLIEESQNQQEKNEQELL[βAla]K(X11)-NH2)
2 | 197 | C=CCOC(=O)[C@]12CC[C@@H](C(=C)C)[C@@H]1[C@H]1CC[C@@H]3[C@@]4(C)CC[C@H](OC(=O)CCc5cn(CC(=O)NCCC(=O)N[C@@H](CC(N)=O)C(=O)N[C@@H](CC(N)=O)C(=O)N[C@@H](Cc6ccc(O)cc6)C(=O)N[C@H](C(=O)N[C@@H](CO)C(=O)N[C@@H](CC(C)C)C(=O)N[C@H](C(=O)N[C@@H](Cc6cnc[nH]6)C(=O)N[C@@H](CO)C(=O)N[C@@H](CC(C)C)C(=O)N[C@H](C(=O)N[C@@H](CCC(=O)O)C(=O)N[C@@H](CCC(=O)O)C(=O)N[C@@H](CO)C(=O)N[C@@H](CCC(N)=O)C(=O)N[C@@H](CC(N)=O)C(=O)N[C@@H](CCC(N)=O)C(=O)N[C@@H](CCC(N)=O)C(=O)N[C@@H](CCC(=O)O)C(=O)N[C@@H](CCCCN)C(=O)N[C@@H](CC(N)=O)C(=O)N[C@@H](CCC(=O)O)C(=O)N[C@@H](CCC(N)=O)C(=O)N[C@@H](CCC(=O)O)C(=O)N[C@@H](CC(C)C)C(=O)N[C@@H](CC(C)C)C(N)=O)[C@@H](C)CC)[C@@H](C)CC)[C@@H](C)O)nn5)C(C)(C)[C@@H]4CC[C@@]3(C)[C@]1(C)CC2 ({X1-βAla}-NNYTSLIHSLIEESQNQQEKNEQELL-NH2)
3 | 15 | C=C(C)[C@@H]1CC[C@]2(C(=O)O)CC[C@]3(C)[C@H](CC[C@@H]4[C@@]5(C)CC[C@H](OC(=O)CCc6cn(CC(=O)NCCC(=O)N[C@@H](CC(N)=O)C(=O)N[C@@H](CC(N)=O)C(=O)N[C@@H](Cc7ccc(O)cc7)C(=O)N[C@H](C(=O)N[C@@H](CO)C(=O)N[C@@H](CC(C)C)C(=O)N[C@H](C(=O)N[C@@H](Cc7cnc[nH]7)C(=O)N[C@@H](CO)C(=O)N[C@@H](CC(C)C)C(=O)N[C@H](C(=O)N[C@@H](CCC(=O)O)C(=O)N[C@@H](CCC(=O)O)C(=O)N[C@@H](CO)C(=O)N[C@@H](CCC(N)=O)C(=O)N[C@@H](CC(N)=O)C(=O)N[C@@H](CCC(N)=O)C(=O)N[C@@H](CCC(N)=O)C(=O)N[C@@H](CCC(=O)O)C(=O)N[C@@H](CCCCN)C(=O)N[C@@H](CC(N)=O)C(=O)N[C@@H](CCC(=O)O)C(=O)N[C@@H](CCC(N)=O)C(=O)N[C@@H](CCC(=O)O)C(=O)N[C@@H](CC(C)C)C(=O)N[C@@H](CC(C)C)C(N)=O)[C@@H](C)CC)[C@@H](C)CC)[C@@H](C)O)nn6)C(C)(C)[C@@H]5CC[C@]43C)[C@@H]12 ({X3-βAla}-NNYTSLIHSLIEESQNQQEKNEQELL-NH2)
4 | 89 | C=C(C)[C@@H]1CC[C@]2(C(=O)OCc3cn(CC(=O)NCCC(=O)N[C@@H](CC(N)=O)C(=O)N[C@@H](CC(N)=O)C(=O)N[C@@H](Cc4ccc(O)cc4)C(=O)N[C@H](C(=O)N[C@@H](CO)C(=O)N[C@@H](CC(C)C)C(=O)N[C@H](C(=O)N[C@@H](Cc4cnc[nH]4)C(=O)N[C@@H](CO)C(=O)N[C@@H](CC(C)C)C(=O)N[C@H](C(=O)N[C@@H](CCC(=O)O)C(=O)N[C@@H](CCC(=O)O)C(=O)N[C@@H](CO)C(=O)N[C@@H](CCC(N)=O)C(=O)N[C@@H](CC(N)=O)C(=O)N[C@@H](CCC(N)=O)C(=O)N[C@@H](CCC(N)=O)C(=O)N[C@@H](CCC(=O)O)C(=O)N[C@@H](CCCCN)C(=O)N[C@@H](CC(N)=O)C(=O)N[C@@H](CCC(=O)O)C(=O)N[C@@H](CCC(N)=O)C(=O)N[C@@H](CCC(=O)O)C(=O)N[C@@H](CC(C)C)C(=O)N[C@@H](CC(C)C)C(N)=O)[C@@H](C)CC)[C@@H](C)CC)[C@@H](C)O)nn3)CC[C@]3(C)[C@H](CC[C@@H]4[C@@]5(C)CC[C@H](O)C(C)(C)[C@@H]5CC[C@]43C)[C@@H]12 ({X4-βAla}-NNYTSLIHSLIEESQNQQEKNEQELL-NH2)
